The test system of data set [1] is violacein production of C. violaceum CVO26. The data set can be described thus: Quorum sensing bioassay: violacein production. The following applies: 18 h; for IC50: Chromobacterium violaceum, read-out: IC50 (Violacein inhibition); for IC50 (Violacein inhibition): with HHL, compounds 3-5 and 7 tested up to 500 μM, others up to 100 μM. It counts as cell-based, Chromobacterium violaceum. The protocol:
The reporter strain C. violaceum CVO26 (CECT 5999) was used to screen the ability of the products to interfere with violacein production, a QS-regulated phenotype. C. violaceum CVO26 is a mini-Tn5 mutant that depends on an exogenous source of autoinducer (AI) (N-hexanoyl homoserine lactone, HHL) for violacein production. C. violaceum CVO26 was cultured in LB broth (Sigma-Aldrich) supplemented with 25 μg ml^-1 kanamycin. Inocula were prepared by dilution (1:100) of an overnight culture of the reporter strain [49]. One hundred microliters of inoculum with HHL (Sigma-Aldrich, 6 μM) or without the AI were added to 96-well plates containing 100 μl of the appropriate dilutions of the test products in LB. Thus, two sets of plates were prepared. One set of plates (without HHL) was used to evaluate the effect of the products on bacterial growth, whereas the other set of plates (with HHL) was used to evaluate their effect on violacein production. Both sets of plates were incubated at 30 °C with agitation (150 rpm) for 18 h.
Growth inhibition was quantified in the first batch of plates by re-suspending bacterial pellets and measuring the OD625. From the second batch of plates violacein was extracted and quantified. Briefly, the plates were dried overnight (60 °C) and violacein was re-solubilized by the addition of 200 μl of DMSO. The plates were shaken for 3 h and then the OD590 was determined.
To evaluate the effect of the alkyl triphenylphosphonium salts on QS-regulated phenotypes, an initial screening at the cut-off concentration of 100 μM was conducted with C. violaceum CVO26. The QS model of C. violaceum is relatively simple and consists of an acyl-homoserine lactone synthase (CviI) that produces the AI molecule N-hexanoyl homoserine lactone (HHL, strain ATCC 31532), or N-3-hydroxydecanoyl homoserine lactone (strain ATCC 12472) which is recognized by the cytoplasmic receptor CviR (Fig 4). The reporter strain CVO26 is a CviI::mini-Tn5 mutant of strain ATCC 31532 and thus recognizes HHL. CviR is a DNA-binding transcription factor that activates the expression of the genes encoding the production of violacein, the characteristic purple alkaloid that gives name to the species.
Indeed, the inhibitions observed in violacein production for long alkyl chains (10–18, 20) were clearly correlated to the biocidal effect exerted by these compounds, with ‘therapeutic ratios’ (IC50 for growth inhibition/IC50 for violacein inhibition) around 1, in general (Table 2). Note that, as the length of the hydrocarbon chain becomes shorter, this ratio increased (8–9). […] To evaluate these compounds in further detail, […] stock solutions were prepared […] to avoid the use of high concentrations of DMSO in the bioassays. […] Serial two-fold dilutions (500–3.9 μM) were assayed. Consequently, the highest amount of DMSO used in the assay was 0.25% (v/v). […] Growth inhibitory effects are only observed at 500 μM, particularly for compound 7 (Fig 6D).

Another data set deals with Fusarium sp. Description: Marine-derived fungi growth inhibition (OD405). Format: cell-based. The conditions noted are these: Fusarium, 120 h, 5 days, 26 °C. Here is the method:
All the biological assays were run by triplicate.
Three strains of marine-derived fungi were kindly provided by Dr. Á. Trigos (University of Veracruz, Mexico). The strains were isolated from reef organisms collected from the Veracruz Reef System and identified as Aspergillus sp., Fusarium sp. and Alternaria sp..
Fungal strains were cultured in Potato-Dextrose Agar (PDA) supplemented with filtered seawater (FSW) (50% v/v) at 26 °C for 5 days prior to experiments. […] Briefly, fungal inocula were prepared by addition of 5 ml of sterile saline solution to the cultures. Gently swabbing released conidia. […] The plates were incubated for 5 days at 26 °C. The calculation of the half-maximal inhibitory concentrations (IC50) was performed using OD405 as endpoint.

A further data set deals with Cobetia marina CECT 4278. Description: Marine bacteria growth inhibition (broth microdilution, OD625). Format: cell-based. The conditions noted are these: Cobetia marina, CECT4278; growth inhibition, 24 h, 30 °C, three replicates; read-out: IC50 C. marina. The protocol:
(§1) All the biological assays were run by triplicate. […] For the active products, serial dilutions were performed to calculate the half-maximal inhibitory concentrations (IC50) or the minimal inhibitory concentrations (MIC). Unless otherwise stated, the test concentrations were 100, 50, 25, 10, 5, 2.5, 1, 0.5 and 0.1 μM. Dose-response curves were adjusted with GraphPad Prism 5 software using a four-parameter non-linear regression model.
(§2) Growth inhibition was assessed in Marine Broth (Conda) according to CLSI guidelines for broth microdilution susceptibility testing. The incubation time was 24 h and the incubation temperature was 30 °C.

The test system of data set [2] is Vibrio alginolyticus CECT 521. The data set is described as above. The conditions noted are these: Vibrio alginolyticus, CECT521; growth inhibition, 24 h, 30 °C, three replicates; read-out: IC50 V. alginolyticus. It counts as cell-based. The protocol: as §1, §2
The subject of data set [3] is Vibrio anguillarum CECT 4347. Described as above. It counts as cell-based. The conditions noted are these: Vibrio anguillarum, CECT4347; growth inhibition, 24 h, 30 °C, three replicates; read-out: IC50 V. anguillarum. Here is the method: as §1, §2
For data set [4], the system named is Pseudoalteromonas atlantica CECT 579. The description is as above. Format: cell-based. The following applies: Pseudoalteromonas atlantica, CECT579; growth inhibition, 24 h, 30 °C, three replicates; read-out: IC50 P. atlantica. The protocol:
as §1, §2

Data set [5] deals with Shewanella algae CECT 5021. The description is as above. It counts as cell-based. The conditions noted are these: Shewanella algae, CECT5021; growth inhibition, 24 h, 30 °C, three replicates; read-out: IC50 S. algae. Here is the method: as §1, §2
Data set [6] deals with Cellulophaga lytica CECT 5014. The data set is described as above. The following applies: Cellulophaga lytica, CECT5014; growth inhibition, 24 h, 30 °C, three replicates; read-out: IC50 C. lytica. It counts as cell-based. Here is the method: as §1, §2
The test system of a further data set is Artemia salina nauplii. Description: in vivo. The following applies: instar I nauplii, 24 h, 28 °C. The protocol: as §1
Artemia salina cysts (INVE Aquaculture, Ghent, Belgium) were hatched in brackish water (30 ‰ salinity) at 28 °C with aeration and under constant light. Newly hatched instar I nauplii were harvested for bioassays. Tests were conducted in 96-well plates (15±5 nauplii per well, test volume = 200 μl). The number of dead and alive individuals was recorded after 24 h of incubation at 28 °C and 24-hour photoperiod.

Consider nine compounds from paper PMC4405350, “From Broad-Spectrum Biocides to Quorum Sensing Disruptors and Mussel Repellents: Antifouling Profile of Alkyl Triphenylphosphonium Salts” (PLoS ONE, 2015).

Molecules are shown by their SMILES.

Turning to `BrC(Br)[P+](c1ccccc1)(c1ccccc1)c1ccccc1` [Compound 1], the IC50 (in data set [1]; in the data set on Fusarium sp.; with Cobetia marina CECT 4278; in [2]; in data set [3]; in [4]) was above 100 µM throughout. Also, the IC50 in [5] and in [6] was above 100 µM in each case. For the same compound, the “IC50 (Violacein inhibition)” value in data set [1] was “inactive”. In the data set on Artemia salina nauplii, the “IC50 A. salina (LC50)” value is above 100 µM.

`COC(=O)CCC[P+](c1ccccc1)(c1ccccc1)c1ccccc1` [Compound 2]: the IC50 (in [1]; in the data set on Fusarium sp.; in the data set with Cobetia marina CECT 4278; in data set [2]; in data set [3]; in [4]) was above 100 µM each time. The IC50 in [5] and in data set [6] was above 100 µM each time. Also, the “IC50 (Violacein inhibition)” value in data set [1] is “inactive”. In addition, the “IC50 A. salina (LC50)” value with Artemia salina nauplii was above 100 µM.

For `C/C=C/C[P+](c1ccccc1)(c1ccccc1)c1ccccc1` [Compound 3], the IC50 in [1] was 92.3 µM; with Fusarium sp., above 100 µM; in the data set on Cobetia marina CECT 4278, above 100 µM; in data set [2], above 100 µM; in data set [3] it was above 100 µM; in [4] it was 9.5 µM. Also, the IC50 in data set [5] was above 100 µM; in data set [6], 73.2 µM. The “IC50 A. salina (LC50)” value with Artemia salina nauplii is above 100 µM.

Take `BrCCCC[P+](c1ccccc1)(c1ccccc1)c1ccccc1` [Compound 4]: the IC50 in data set [1] is 142 µM; in the data set on Fusarium sp. it was above 100 µM; in the data set on Cobetia marina CECT 4278, above 100 µM; in data set [2] it was above 100 µM; in [3] it was above 100 µM; in [4] it was 26.4 µM. Besides, the IC50 in [5] and in data set [6] was above 100 µM in each case. The “IC50 A. salina (LC50)” value in the data set with Artemia salina nauplii was 92.7 µM.

Consider `CCCCN[P+](c1ccccc1)(c1ccccc1)c1ccccc1` [Compound 5], for which the IC50 was 137 µM in data set [1]; above 100 µM in the data set with Fusarium sp.; above 100 µM in the data set with Cobetia marina CECT 4278; above 100 µM in data set [2]; above 100 µM in [3]; above 100 µM in data set [4]. Moreover, the IC50 in data set [5] was above 100 µM; in [6], 41.8 µM. Moreover, the “IC50 A. salina (LC50)” value in the data set with Artemia salina nauplii was found to be 17.2 µM.

As for `O=S(=O)([O-])CCCC[P+](c1ccccc1)(c1ccccc1)c1ccccc1` [Compound 6], the IC50 (in [1]; with Fusarium sp.; with Cobetia marina CECT 4278; in data set [2]; in data set [3]; in data set [4]) was above 100 µM throughout. The IC50 in data set [5] and in data set [6] was above 100 µM each time. Besides, the “IC50 A. salina (LC50)” value in the data set on Artemia salina nauplii was above 100 µM.

`CCCCC[P+](c1ccccc1)(c1ccccc1)c1ccccc1` [Compound 7]: the IC50 was 52.9 µM in data set [1]; above 100 µM in the data set on Fusarium sp.; above 100 µM with Cobetia marina CECT 4278; above 100 µM in data set [2]; above 100 µM in data set [3]; above 100 µM in [4]. Besides, the IC50 in [5] and in data set [6] was above 100 µM in each case. Further, in the data set on Artemia salina nauplii, the “IC50 A. salina (LC50)” value is above 100 µM.

As for `CCCCCCC[P+](c1ccccc1)(c1ccccc1)c1ccccc1` [Compound 8, heptyl triphenylphosphonium bromide], the IC50 in data set [1] is 19 µM; in the data set with Fusarium sp. it was above 100 µM; with Cobetia marina CECT 4278, above 100 µM; in data set [2], above 100 µM; in [3], above 100 µM; in data set [4], 28.6 µM. Also, the IC50 in data set [5] was above 100 µM; in data set [6], 20 µM. Moreover, the “IC50 A. salina (LC50)” value with Artemia salina nauplii was determined as 20.4 µM.

Consider `O=C(O)CCCCCCCCCC[P+](c1ccccc1)(c1ccccc1)c1ccccc1` [Compound 19], for which the IC50 (in data set [1]; in the data set with Fusarium sp.; in the data set on Cobetia marina CECT 4278; in [2]; in data set [3]; in [4]) was above 100 µM throughout. Moreover, the IC50 in [5] and in data set [6] was above 100 µM in each case.
